Earlier results in patent US10350179B2, “Combination comprising palmitoylethanolamide (PEA) and lycopene for use in the treatment of inflammatory diseases” (Raffaele MIGLIACCIO, priority 2015, dated 2019).

Settings: dietary intake, background statement

- Concentration in human plasma: 0.22 to 1.06 nmol/mL
Structure (SMILES): CC(C)=CCC/C(C)=C/C=C/C(C)=C/C=C/C(C)=C/C=C/C=C(C)/C=C/C=C(C)/C=C/C=C(\C)CCC=C(C)C [Lycopene]
